In US20060247250A1 (TargeGen, Inc., priority 2005, published 2006) one finds IC50 data, which are given here for 35 compounds.

The assay deals with T1, human c-Src (Homo sapiens, UniProt P12931).
T1 construct: purchased Panvera/Invitrogen
T1 sequence (P12931 whole entry): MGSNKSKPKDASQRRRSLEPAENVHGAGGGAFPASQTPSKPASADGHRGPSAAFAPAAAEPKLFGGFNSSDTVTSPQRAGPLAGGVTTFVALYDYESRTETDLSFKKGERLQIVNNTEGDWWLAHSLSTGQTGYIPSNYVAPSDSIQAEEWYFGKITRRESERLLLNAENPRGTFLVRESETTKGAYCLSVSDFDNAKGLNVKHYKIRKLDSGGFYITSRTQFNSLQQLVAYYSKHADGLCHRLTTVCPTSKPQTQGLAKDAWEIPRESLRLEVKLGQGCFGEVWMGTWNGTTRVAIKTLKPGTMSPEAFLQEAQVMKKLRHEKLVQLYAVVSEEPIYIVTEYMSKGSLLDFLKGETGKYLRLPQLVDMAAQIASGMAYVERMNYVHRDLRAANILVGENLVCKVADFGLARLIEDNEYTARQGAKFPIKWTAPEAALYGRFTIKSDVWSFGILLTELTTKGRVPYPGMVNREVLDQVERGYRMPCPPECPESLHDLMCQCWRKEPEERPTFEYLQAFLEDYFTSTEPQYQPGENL
As to the kind of experiment: Src kinase inhibition, luciferase-based residual ATP (KinaseGlo). It counts as biochemical. As to conditions: recombinant human c-Src, ATP 3 μM, PTK2 substrate, 90 minutes at room temperature. The protocol: The ability of compounds of the present invention to inhibit the activity of three groups of kinases was tested. Kinases tested included the src family (primarily src and yes), the angiogenic growth factors receptors (FGFR1, PDGFRb and VEGFR2) and the ephrin, EphB4. All kinase reactions were conducted in 96-well plates with a final reaction volume of 50 ul.
Recombinant human c-Src or Yes (28 ng/well, Panvera/Invitrogen, Madison Wis.), ATP (3 μM), a tyrosine kinase substrate (PTK2, 250 μM, Promega Corp., Madison Wis.), and test agents (at concentrations ranging from about 1 nM/l to about 100 μM/1), in the presence of Src kinase reaction buffer (Upstate USA, Lake Placid N.Y.). After reacting for about 90 minutes at room temperature, residual ATP was determined using a luciferase-based assay (KinaseGlo, Promega Corp.) as a measure of kinase activity. Data from four wells were then averaged and used to determine IC50 values for the test compounds (Prism software package, GraphPad Software, San Diego Calif.).
On the technique in general: Kinase-Glo reads ATP consumption through a luciferase reaction.
The term IC50 denotes the concentration at which inhibition is half-maximal. Regarding `O=C(NCCN1CCCC1)c1ccc(Nc2ncc(NC(=O)c3ccc(O)cc3Cl)cn2)cc1`, the IC50 is 85 nM.

As to `COc1ccc(Cl)c(C(=O)Nc2cnc(Nc3ccc(S(=O)(=O)CCCN4CCCC4)cc3)nc2)c1` [Compound 53, 2-Chloro-5-methoxy-N-{2-[4-(3-pyrrolidin-1-yl-propane-1-sulfonyl)-phenylamino]-pyrimidin-5-yl}-benzamide], the IC50 was determined as 8000 nM.

With `Cc1cccc(C)c1C(=O)Nc1cnc(Nc2cccc(S(=O)(=O)NCCN(C)C)c2)nc1` [I, N-{2-[3-(2-Dimethylamino-ethylsulfamoyl)-phenylamino]-Pyrimidin-5-yl}-2,6-dimethyl-benzamide], the IC50 came to 288 nM.

Regarding `O=C(Nc1cnc(Nc2ccc(C(=O)N3CCN(CCO)CC3)nc2)nc1)c1c(Cl)cccc1Cl` [II, 2,6-Dichloro-N-(2-{6-[4-(2-hydroxy-ethyl)-piperazine-1-carbonyl]-pyridin-3-ylamino}-pyrimidin-5-yl)-benzamide], the IC50 amounted to 400 nM.

With `O=C(Nc1cnc(Nc2ccc(S(=O)(=O)NCCN3CCCC3)cc2)nc1)c1c(Cl)cccc1Cl` [III, 2,6-Dichloro-N-{2-[4-(2-pyrrolidin-1-yl-ethylsulfamoyl)-phenylamino]-pyrimidin-5-yl}-benzamide], the IC50 was determined as 73 nM.

Take `CN(CCN1CCCC1)S(=O)(=O)c1ccc(Nc2ncc(NC(=O)c3c(Cl)cccc3Cl)cn2)cc1` [IV, 2,6-Dichloro-N-(2-[4-[methyl-(2-pyrrolidin-1-yl-ethyl)-sulfamoyl]-phenylamino]-pyrimidin-5-yl)-benzamide]: the IC50 amounted to 2100 nM.

In the case of `O=C(NCCN1CCCC1)c1ccc(Nc2ncc(NC(=O)c3cc(O)ccc3Cl)cn2)cn1` [IX, 5-[5-(2-Chloro-5-hydroxy-benzoylamino)-pyrimidin-2-ylamino]-Pyridine-2-carboxylic acid (2-pyrrolidin-1-yl-ethyl)-amide], the IC50 turned out to be 13 nM.

With `Cc1cccc(C)c1C(=O)Nc1cnc(Nc2ccc(C(=O)N3CCNCC3)cc2)nc1` [L, 2,6-Dimethyl-N-{2-[4-(piperazine-1-carbonyl)-phenylamino]-pyrimidin-5-yl}-benzamide], the concentration for half-maximal inhibition (IC50) was 183 nM.

Regarding `O=C(Nc1cnc(Nc2ccc(C(=O)N3CCNCC3)cc2)nc1)c1cc(O)ccc1Cl` [LI, 2-Chloro-5-hydroxy-N-{2-[4-(piperazine-1-carbonyl)-phenylamino]-Pyrimidin-5-yl}-benzamide], the IC50 came to 12 nM.

Consider `Clc1cccc(Cl)c1CNc1cnc(Nc2cccc(OCCN3CCCC3)c2)nc1` [LII, N′-(2,6-Dichloro-benzyl)-N-[3-(2-pyrrolidin-1-yl-ethoxy)-phenyl]-pyrimidine-2,5-diamine], for which the IC50 was found to be 60 nM.

With `Cc1nc(Nc2ncc(NC(=O)c3c(Cl)cccc3Cl)cn2)cc(N2CCN(CCO)CC2)n1` [LIII, 2,6-Dichloro-N-(2-{6-[4-(2-hydroxy-ethyl)-piperazin-1-yl]-2-methyl-pyrimidin-4-ylamino}-pyrimidin-5-yl)-benzamide], the IC50 worked out at 3000 nM.

In the case of `CN1CCN(S(=O)(=O)c2ccc(Nc3ncc(NC(=O)c4c(Cl)cccc4Cl)cn3)cc2)CC1` [V, 2,6-Dichloro-N-{2-[4-(4-methyl-piperazine-1-sulfonyl)-phenylamino]-pyrimidin-5-yl}-benzamide], the IC50 was 667 nM.

Turning to `Cc1cccc(C)c1C(=O)Nc1cnc(Nc2ccc(S(=O)(=O)NCCN3CCCC3)cc2)nc1` [VI, 2,6-Dimethyl-N-{2-[4-(2-pyrrolidin-1-yl-ethylsulfamoyl)-phenylamino]-pyrimidin-5-yl}-benzamide], the IC50 came out at 90 nM.

For `O=C(Nc1cnc(Nc2ccc(S(=O)(=O)NCCN3CCCC3)cc2)nc1)c1cc(O)ccc1Cl` [VII, 2-Chloro-5-hydroxy-N-{2-[4-(2-pyrrolidin-1-yl-ethylsulfamoyl)-phenylamino]-pyrimidin-5-yl}-benzamide], the IC50 was found to be 13 nM.

With `O=C(NCCN1CCCC1)c1ccc(Nc2ncc(NC(=O)c3c(Cl)cccc3Cl)cn2)cn1` [VIII, 5-[5-(2,6-Dichloro-benzoylamino)-pyrimidin-2-ylamino]-pyridine-2-carboxylic acid (2-pyrrolidin-1-yl-ethyl)-amide], the half-maximal inhibitory concentration (IC50) came to 129 nM.

As to `O=C(Nc1cnc(Nc2cccnc2)nc1)c1c(Cl)cccc1Cl` [X, 2,6-Dichloro-N-[2-(pyridin-3-ylamino)-pyrimidin-5-yl]-benzamide], the IC50 amounted to 300 nM.

With `O=C(Nc1cnc(Nc2cccnc2)nc1)c1cc(O)ccc1Cl` [XI, Chloro-5-hydroxy-N-[2-(pyridin-3-ylamino)-pyrimidin-5-yl]-benzamide], the IC50 was found to be 43 nM.

Take `CN1CCN(C(=O)c2ccc(Nc3ncc(NC(=O)c4c(Cl)cccc4Cl)cn3)cc2)CC1` [XIV, 2,6-Dichloro-N-{2-[4-(4-methyl-piperazine-1-carbonyl)-phenylamino]-pyrimidin-5-yl}-benzamide]: the 50% inhibitory concentration (IC50) worked out at 94 nM.

`CC(C)N(CCO)C(=O)c1cccc(Nc2ncc(NC(=O)c3c(Cl)cccc3Cl)cn2)c1` [XIX, 2,6-Dichloro-N-(2-{3-[(2-hydroxy-ethyl)-isopropyl-carbamoyl]-phenylamino}-pyrimidin-5-yl)-benzamide]: the half-maximal inhibitory concentration (IC50) came to 25 nM.

With `Oc1ccc(Cl)c(CNc2cnc(Nc3ccc(OCCN4CCCC4)cc3)nc2)c1` [XLI, 3-((2-(4-(2-(Pyrrolidin-1-yl)ethoxy)phenylamino)pyrimidin-5-ylamino)methyl)-4-chlorophenol], the IC50 turned out to be 55 nM.

For `O=C(Nc1cnc(Nc2cccc(OCCN3CCCC3)c2)nc1)c1cc(O)ccc1Cl` [XLII, N-(2-(3-(2-(Pyrrolidin-1-yl)ethoxy)phenylamino)pyrimidin-5-yl)-2-chloro-5-hydroxybenzamide], the IC50 stood at 21 nM.

`Cc1cccc(C)c1C(=O)Nc1cnc(Nc2cccc(OCCN3CCCC3)c2)nc1` [XLIII, N-(2-(3-(2-(Pyrrolidin-1-yl)ethoxy)phenylamino)pyrimidin-5-yl)-2,6-dimethylbenzamide]: the IC50 was 99 nM.

Consider `O=C(Nc1cnc(Nc2cccc(OCCN3CCCC3)c2)nc1)c1c(Cl)cccc1Cl` [XLIV, N-(2-(3-(2-(Pyrrolidin-1-yl)ethoxy)phenylamino)pyrimidin-5-yl)-2,6-dichlorobenzamide], for which the IC50 stood at 25 nM.

For the compound `O=C(Nc1cnc(Nc2ccc(N3CCN(CCO)CC3)nc2)nc1)c1c(Cl)cccc1Cl` [XLIX, 2,6-Dichloro-N-(2-{6-[4-(2-hydroxy-ethyl)-piperazin-1-yl]-pyridin-3-ylamino}-pyrimidin-5-yl)-benzamide], the IC50 worked out at 54 nM.

On to `O=C(Nc1cnc(Nc2ccc(S(=O)(=O)N3CCNCC3)cc2)nc1)c1cc(O)ccc1Cl` [XLVII, 2-Chloro-5-hydroxy-N-{2-[4-(piperazine-1-sulfonyl)-phenylamino]-Pyrimidin-5-yl}-benzamide], for which the IC50 was determined as 38 nM.

As to `O=C(Nc1cnc(Nc2ccc(C(=O)N3CCN(CCO)CC3)nc2)nc1)c1cc(O)ccc1Cl` [XLVIII, 2-Chloro-5-hydroxy-N-(2-{6-[4-(2-hydroxy-ethyl)-piperazine-1-carbonyl]-pyridin-3-ylamino}-pyrimidin-5-yl)-benzamide], the IC50 is 53 nM.

In the case of `Cc1cccc(C)c1C(=O)Nc1cnc(Nc2ccc(C(=O)N3CCN(C)CC3)cc2)nc1` [XV, 2,6-Dimethyl-N-{2-[4-(4-methyl-piperazine-1-carbonyl)-phenylamino]-pyrimidin-5-yl}-benzamide], the IC50 is 223 nM.

For the compound `CN1CCN(C(=O)c2ccc(Nc3ncc(NC(=O)c4cc(O)ccc4Cl)cn3)cc2)CC1` [XVI, 2-Chloro-5-hydroxy-N-{2-[4-(4-methyl-piperazine-1-carbonyl)-phenylamino]-pyrimidin-5-yl}-benzamide], the IC50 was 21 nM.

As to `Cc1c(O)cccc1C(=O)Nc1cnc(Nc2ccc(C(=O)N3CCN(C)CC3)cc2)nc1` [XVII, 2-Methyl-3-hydroxy-N-{2-[4-(4-methyl-piperazine-1-carbonyl)-phenylamino]-pyrimidin-5-yl}-benzamide], the IC50 is 550 nM.

For `O=C(NCCN1CCCC1)c1csc(Nc2ncc(NC(=O)c3cc(O)ccc3Cl)cn2)n1` [XVIII, 2-[5-(2-Chloro-5-hydroxy-benzoylamino)-pyrimidin-2-ylamino]-thiazole-4-carboxylic acid (2-pyrrolidin-1-yl-ethyl)-amide], the IC50 came out at 20 nM.

Turning to `CC(C)N(CCO)C(=O)c1cccc(Nc2ncc(NC(=O)c3cc(O)ccc3Cl)cn2)c1` [XX, 2-Chloro-5-hydroxy-N-(2-{3-[(2-hydroxy-ethyl)-isopropyl-carbamoyl]-phenylamino}-pyrimidin-5-yl)-benzamide], the IC50 came out at 19 nM.

As to `CC(C)N(CCO)C(=O)c1ccc(Nc2ncc(NC(=O)c3c(Cl)cccc3Cl)cn2)cc1` [XXI, 2,6-Dichloro-N-(2-{4-[(2-hydroxy-ethyl)-isopropyl-carbamoyl]-phenylamino}-pyrimidin-5-yl)-benzamide], the IC50 worked out at 286 nM.

`CC(C)N(CCO)C(=O)c1ccc(Nc2ncc(NC(=O)c3cc(O)ccc3Cl)cn2)cc1` [XXII, 2-Chloro-5-hydroxy-N-(2-{4-[(2-hydroxy-ethyl)-isopropyl-carbamoyl]-phenylamino}-pyrimidin-5-yl)-benzamide]: the concentration for half-maximal inhibition (IC50) came out at 43 nM.

On to `O=C(NCCN1CCCC1)c1ccc(Nc2ncc(NC(=O)c3cc(O)ccc3Br)cn2)cc1` [XXIII, 2-Bromo-5-hydroxy-N-{2-[4-(2-pyrrolidin-1-yl-ethylcarbamoyl)-phenylamino]-pyrimidin-5-yl}-benzamide], for which the IC50 was 13 nM.

For `Cc1cccc(C)c1C(=O)Nc1cnc(Nc2ccc(C(=O)NCCN3CCCC3)cc2)nc1` [XXIX, 2,6-Dimethyl-N-{2-[4-(2-pyrrolidin-1-yl-ethylcarbamoyl)-phenylamino]-pyrimidin-5-yl}-benzamide], the half-inhibitory concentration (IC50) was 117 nM.
